The source of these data is ChEMBL document CHEMBL1142678, “Discovery and structure-activity relationship of quinuclidine benzamides as agonists of alpha7 nicotinic acetylcholine receptors” (J Med Chem, 2005).

One may read the Ki as a dissociation constant, usually derived from enzyme kinetics or from competition with a known ligand. Low values mean tighter binding, high ones weaker binding. What is called IC50 is the concentration that inhibits the measured activity by half. The EC50 is the concentration giving half of the maximal effect. A low value points to higher potency in that assay. One may read the inhibition as how much of the control response was suppressed. A higher inhibition goes with a response far below the control.

Sequence of Neuronal acetylcholine receptor; alpha3/beta4 (P30926 whole entry): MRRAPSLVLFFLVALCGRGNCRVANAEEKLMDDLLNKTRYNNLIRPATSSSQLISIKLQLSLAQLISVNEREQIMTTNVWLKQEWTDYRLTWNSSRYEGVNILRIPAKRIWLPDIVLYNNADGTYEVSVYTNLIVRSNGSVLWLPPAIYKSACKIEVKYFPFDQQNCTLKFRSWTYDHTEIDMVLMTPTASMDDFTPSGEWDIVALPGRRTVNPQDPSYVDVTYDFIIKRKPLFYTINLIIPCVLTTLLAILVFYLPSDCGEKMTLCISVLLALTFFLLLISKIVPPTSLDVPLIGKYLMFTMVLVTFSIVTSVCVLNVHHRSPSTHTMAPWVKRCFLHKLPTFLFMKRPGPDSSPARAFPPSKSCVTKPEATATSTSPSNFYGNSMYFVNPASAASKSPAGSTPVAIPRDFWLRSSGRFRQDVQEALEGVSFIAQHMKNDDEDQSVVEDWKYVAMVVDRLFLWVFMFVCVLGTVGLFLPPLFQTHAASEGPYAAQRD
Sequence of Neuronal acetylcholine receptor; alpha3/beta4 (P32297 whole entry): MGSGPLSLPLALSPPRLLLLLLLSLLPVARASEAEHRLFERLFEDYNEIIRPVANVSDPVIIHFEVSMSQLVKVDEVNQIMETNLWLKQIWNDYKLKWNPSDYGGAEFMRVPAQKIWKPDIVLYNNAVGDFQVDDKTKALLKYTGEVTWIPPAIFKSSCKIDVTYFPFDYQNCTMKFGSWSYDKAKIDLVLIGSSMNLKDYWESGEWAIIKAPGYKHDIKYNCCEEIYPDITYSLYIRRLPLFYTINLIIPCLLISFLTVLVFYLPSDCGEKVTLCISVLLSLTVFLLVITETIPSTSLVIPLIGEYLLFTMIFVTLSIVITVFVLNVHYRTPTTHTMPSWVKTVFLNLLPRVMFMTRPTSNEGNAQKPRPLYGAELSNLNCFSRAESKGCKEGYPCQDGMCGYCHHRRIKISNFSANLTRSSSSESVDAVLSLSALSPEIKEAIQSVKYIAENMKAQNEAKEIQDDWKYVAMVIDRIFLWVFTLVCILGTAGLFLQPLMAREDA

For the first assay, the target named is T1, Serotonin 3 (5-HT3) receptor (Rattus norvegicus, UniProt P35563+Q9JJ16).
T1 sequence (P35563 whole entry): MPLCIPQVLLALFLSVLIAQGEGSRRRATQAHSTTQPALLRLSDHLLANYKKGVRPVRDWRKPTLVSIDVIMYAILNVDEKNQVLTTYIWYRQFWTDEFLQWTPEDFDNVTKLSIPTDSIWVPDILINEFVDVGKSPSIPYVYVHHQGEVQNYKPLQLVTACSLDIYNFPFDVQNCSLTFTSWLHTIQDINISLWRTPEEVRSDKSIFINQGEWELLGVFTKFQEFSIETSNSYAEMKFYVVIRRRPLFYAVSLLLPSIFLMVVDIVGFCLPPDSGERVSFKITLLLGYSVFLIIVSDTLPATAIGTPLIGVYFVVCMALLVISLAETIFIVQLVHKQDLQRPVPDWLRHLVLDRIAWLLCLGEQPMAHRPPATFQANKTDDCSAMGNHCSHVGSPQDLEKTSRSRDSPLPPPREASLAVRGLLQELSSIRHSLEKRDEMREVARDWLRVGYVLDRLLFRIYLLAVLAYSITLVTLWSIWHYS
T1 sequence (Q9JJ16 whole entry): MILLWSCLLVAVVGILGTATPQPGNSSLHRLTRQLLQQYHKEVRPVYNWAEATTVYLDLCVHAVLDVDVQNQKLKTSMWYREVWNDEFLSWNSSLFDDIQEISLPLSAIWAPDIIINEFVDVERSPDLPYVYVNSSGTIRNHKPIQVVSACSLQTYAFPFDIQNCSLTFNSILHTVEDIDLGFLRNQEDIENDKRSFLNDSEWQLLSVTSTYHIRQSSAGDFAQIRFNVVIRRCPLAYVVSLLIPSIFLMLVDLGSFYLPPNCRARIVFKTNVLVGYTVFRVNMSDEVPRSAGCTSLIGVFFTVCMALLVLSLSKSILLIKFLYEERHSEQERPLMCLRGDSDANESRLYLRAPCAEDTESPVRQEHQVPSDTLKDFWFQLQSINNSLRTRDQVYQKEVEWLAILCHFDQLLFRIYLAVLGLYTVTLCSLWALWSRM
The experiment in a line: Inhibition of [3H]GR-65630 binding to 5-hydroxytryptamine 3 receptor from rat brain homogenates.
The compound `O=C(N[C@H]1CN2CCC1CC2)c1ccc(Cl)cc1` [listing 1 of 2 here] showed a Ki of 1660 nM.

For another assay, the target named is Acetylcholine receptor; alpha1/beta1/delta/gamma (Homo sapiens, UniProt P02708+P07510+P11230+Q07001). The experiment in a line: Antagonistic activity against Nicotinic acetylcholine receptor alpha-1-beta-1-delta-gamma. The format is functional.
Sequence of Acetylcholine receptor; alpha1/beta1/delta/gamma (P02708 whole entry): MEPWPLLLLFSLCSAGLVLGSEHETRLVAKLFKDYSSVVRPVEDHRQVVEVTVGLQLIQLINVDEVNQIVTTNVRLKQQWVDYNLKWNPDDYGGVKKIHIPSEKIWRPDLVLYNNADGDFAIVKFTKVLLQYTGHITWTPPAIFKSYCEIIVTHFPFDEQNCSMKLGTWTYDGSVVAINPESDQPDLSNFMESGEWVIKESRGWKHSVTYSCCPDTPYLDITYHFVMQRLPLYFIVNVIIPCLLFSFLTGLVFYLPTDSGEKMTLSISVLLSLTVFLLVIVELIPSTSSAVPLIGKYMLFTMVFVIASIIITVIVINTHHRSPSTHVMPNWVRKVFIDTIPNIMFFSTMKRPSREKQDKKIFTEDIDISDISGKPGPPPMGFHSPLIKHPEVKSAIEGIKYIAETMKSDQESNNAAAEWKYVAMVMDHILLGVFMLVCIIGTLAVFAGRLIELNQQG
Sequence of Acetylcholine receptor; alpha1/beta1/delta/gamma (P07510 whole entry): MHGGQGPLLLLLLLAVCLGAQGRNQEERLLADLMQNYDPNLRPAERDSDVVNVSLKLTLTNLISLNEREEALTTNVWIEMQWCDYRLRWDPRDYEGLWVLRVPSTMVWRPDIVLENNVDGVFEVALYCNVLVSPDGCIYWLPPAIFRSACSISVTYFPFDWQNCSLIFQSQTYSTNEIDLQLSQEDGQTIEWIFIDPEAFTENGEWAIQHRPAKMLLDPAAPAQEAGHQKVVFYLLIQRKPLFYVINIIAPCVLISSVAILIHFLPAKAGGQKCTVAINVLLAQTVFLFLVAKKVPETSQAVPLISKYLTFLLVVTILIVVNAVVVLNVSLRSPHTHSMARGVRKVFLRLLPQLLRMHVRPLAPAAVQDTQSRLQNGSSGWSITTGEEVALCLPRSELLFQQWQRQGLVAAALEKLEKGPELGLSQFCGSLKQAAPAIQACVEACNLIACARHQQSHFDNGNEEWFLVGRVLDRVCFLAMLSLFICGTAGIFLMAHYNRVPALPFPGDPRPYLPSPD
Sequence of Acetylcholine receptor; alpha1/beta1/delta/gamma (P11230 whole entry): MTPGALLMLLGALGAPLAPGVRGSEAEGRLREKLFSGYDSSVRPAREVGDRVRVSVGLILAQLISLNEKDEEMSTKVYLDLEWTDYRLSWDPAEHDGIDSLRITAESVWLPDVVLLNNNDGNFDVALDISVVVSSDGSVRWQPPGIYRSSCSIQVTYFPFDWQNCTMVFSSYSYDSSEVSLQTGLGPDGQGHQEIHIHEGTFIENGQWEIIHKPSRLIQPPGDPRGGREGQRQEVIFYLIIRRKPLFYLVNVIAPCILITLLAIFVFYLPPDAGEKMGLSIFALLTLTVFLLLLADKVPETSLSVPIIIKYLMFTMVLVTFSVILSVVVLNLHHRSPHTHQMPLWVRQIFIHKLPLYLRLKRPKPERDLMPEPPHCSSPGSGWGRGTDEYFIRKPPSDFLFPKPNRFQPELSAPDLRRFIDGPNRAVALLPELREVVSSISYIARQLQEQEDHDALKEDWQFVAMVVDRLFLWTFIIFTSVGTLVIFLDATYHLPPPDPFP
Sequence of Acetylcholine receptor; alpha1/beta1/delta/gamma (Q07001 whole entry): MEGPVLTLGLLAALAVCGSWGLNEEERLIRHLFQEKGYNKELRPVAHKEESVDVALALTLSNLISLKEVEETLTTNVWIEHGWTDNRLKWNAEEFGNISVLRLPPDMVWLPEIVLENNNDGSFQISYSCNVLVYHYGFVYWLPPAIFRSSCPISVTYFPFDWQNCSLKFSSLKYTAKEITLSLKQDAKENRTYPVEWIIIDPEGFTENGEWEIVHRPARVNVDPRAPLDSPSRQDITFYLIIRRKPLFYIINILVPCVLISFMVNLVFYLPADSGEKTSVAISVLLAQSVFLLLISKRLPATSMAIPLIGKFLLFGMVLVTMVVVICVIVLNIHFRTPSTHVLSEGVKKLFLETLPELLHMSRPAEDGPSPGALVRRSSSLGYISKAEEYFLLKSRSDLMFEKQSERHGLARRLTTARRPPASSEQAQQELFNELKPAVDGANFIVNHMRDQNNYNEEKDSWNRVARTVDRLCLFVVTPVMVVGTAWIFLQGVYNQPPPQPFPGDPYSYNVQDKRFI
`O=C(N[C@H]1CN2CCC1CC2)c1ccc(Cl)cc1` [listing 1 of 2 here]: the IC50 is at least 60000 nM.

Molecular target in a further assay: not listed separately
The experiment in a line: Agonistic activity against Nicotinic acetylcholine receptor alpha-7 - 5-hydroxytryptamine 3 receptor chimera. The format is functional.
For `O=C(N[C@H]1CN2CCC1CC2)c1ccc(C(F)(F)F)cc1`, the EC50 is over 100000 nM.

On to `O=C(N[C@H]1CN2CCC1CC2)c1ccc(I)cc1`, for which it took 494 nM to reach a half-maximal effect (EC50).

`O=C(N[C@H]1CN2CCC1CC2)c1ccc(F)cc1` came in with an EC50 of 506 nM.

In the case of `O=C(N[C@H]1CN2CCC1CC2)c1ccc([N+](=O)[O-])cc1`, the EC50 was 1000 nM.

Consider `CCc1ccc(C(=O)N[C@H]2CN3CCC2CC3)cc1`, for which a half-maximal response (EC50) required 3760 nM.

As to `O=C(N[C@H]1CN2CCC1CC2)c1ccc(Cl)cc1` [listing 1 of 2 here], a half-maximal response (EC50) required 154 nM.

`CC(=O)Nc1ccc(C(=O)N[C@H]2CN3CCC2CC3)cc1`: the EC50 was over 100000 nM.

The compound `O=C(N[C@H]1CN2CCC1CC2)c1ccccc1F` yielded an EC50 of 16700 nM. This lies in the double-digit micromolar range.

As to `O=C(N[C@H]1CN2CCC1CC2)c1ccc(OCc2ccccc2)cc1`, the EC50 is over 100000 nM.

Compound `CCCc1ccc(C(=O)N[C@H]2CN3CCC2CC3)cc1` came in with an EC50 of over 100000 nM.

The compound `CC(=O)c1ccc(C(=O)N[C@H]2CN3CCC2CC3)cc1` returned an EC50 of 30000 nM.

The compound `CN(C)c1ccc(C(=O)N[C@H]2CN3CCC2CC3)cc1` registered an EC50 of 30000 nM.

Compound `COc1cccc(C(=O)N[C@H]2CN3CCC2CC3)c1` had an EC50 of 2200 nM. Compared with the last compound, the EC50 is about 14-fold lower.

`O=C(N[C@H]1CN2CCC1CC2)c1ccc(Cl)cc1` [PNU-282987] gave an EC50 of 128 nM.

Regarding `COc1ccccc1C(=O)N[C@H]1CN2CCC1CC2`, the EC50 is over 100000 nM.

With `O=C(N[C@H]1CN2CCC1CC2)c1cccc(F)c1`, a half-maximal effect (EC50) was put at 3300 nM.

In the case of `CSc1ccc(C(=O)N[C@H]2CN3CCC2CC3)cc1`, the concentration for a half-maximal effect (EC50) worked out at 164 nM. This EC50 lies about 20-fold lower than the previous one.

For the compound `O=C(N[C@H]1CN2CCC1CC2)c1ccc(SCc2ccccc2)cc1`, the EC50 was 100000 nM.

`Cc1ccc(C(=O)N[C@H]2CN3CCC2CC3)cc1` gave an EC50 of 324 nM.

In turn, `O=C(N[C@H]1CN2CCC1CC2)c1ccccc1` registered an EC50 of 1900 nM.

Compound `O=C(N[C@H]1CN2CCC1CC2)c1cccc(Cl)c1` registered an EC50 of 1500 nM.

The compound `O=C(N[C@H]1CN2CCC1CC2)c1ccc(Br)cc1` showed an EC50 of 206 nM.

`CS(=O)(=O)c1ccc(C(=O)N[C@H]2CN3CCC2CC3)cc1` showed an EC50 of over 100000 nM.

For `CC(C)c1ccc(C(=O)N[C@H]2CN3CCC2CC3)cc1`, the EC50 was over 100000 nM.

`COc1ccc(C(=O)N[C@H]2CN3CCC2CC3)cc1` yielded an EC50 of 360 nM. That is a sub-micromolar value.

The target in the next assay is T1, Serotonin 3 (5-HT3) receptor. The experiment in a line: Functional antagonism of rat 5-hydroxytryptamine 3 receptor in cell-based FLIPR assay.
As for `O=C(N[C@H]1CN2CCC1CC2)c1ccc(Cl)cc1` [listing 1 of 2 here], the midpoint of inhibition, the IC50, lay at 4540 nM.

Another assay addresses Neuronal acetylcholine receptor; alpha4/beta2 (Rattus norvegicus) (UniProt P09483+P12390). In words: Inhibition of [3H]cytisine binding to Nicotinic acetylcholine receptor alpha4-beta2 from rat brain homogenates at 1 uM.
Consider `O=C(N[C@H]1CN2CCC1CC2)c1ccc(Cl)cc1` [listing 2 of 2 here], for which the inhibition was 14%.

The next assay concerns the target Neuronal acetylcholine receptor; alpha3/beta4 (Homo sapiens, UniProt P30926+P32297). The experiment in a line: Antagonistic activity against Nicotinic acetylcholine receptor alpha3-beta4. It counts as functional.
In turn, `O=C(N[C@H]1CN2CCC1CC2)c1ccc(Cl)cc1` [listing 1 of 2 here] showed an IC50 of at least 60000 nM.

In another assay the target is Neuronal acetylcholine receptor subunit alpha-7 (Rattus norvegicus, UniProt Q05941). The experiment in a line: Inhibition of methyllycaconitine (MLA) binding to Nicotinic acetylcholine receptor alpha-7 in rat brain homogenates. The format is tissue-based.
Sequence of Neuronal acetylcholine receptor subunit alpha-7 (Q05941 whole entry): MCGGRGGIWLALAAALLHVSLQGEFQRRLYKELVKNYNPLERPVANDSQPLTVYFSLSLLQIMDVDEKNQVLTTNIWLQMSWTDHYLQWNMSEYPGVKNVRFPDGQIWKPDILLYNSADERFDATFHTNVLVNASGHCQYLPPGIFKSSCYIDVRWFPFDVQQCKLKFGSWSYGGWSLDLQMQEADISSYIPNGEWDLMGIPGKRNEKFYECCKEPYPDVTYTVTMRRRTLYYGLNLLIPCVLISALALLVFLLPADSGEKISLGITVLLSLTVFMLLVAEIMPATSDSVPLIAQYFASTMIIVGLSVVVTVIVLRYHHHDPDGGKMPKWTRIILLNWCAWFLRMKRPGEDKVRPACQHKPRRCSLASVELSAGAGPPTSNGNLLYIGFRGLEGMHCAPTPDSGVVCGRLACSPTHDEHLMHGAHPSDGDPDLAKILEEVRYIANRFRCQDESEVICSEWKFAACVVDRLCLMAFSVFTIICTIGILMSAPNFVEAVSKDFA
With `O=C(N[C@H]1CN2CCC1CC2)c1ccc(Cl)cc1` [listing 1 of 2 here], affinity was put at a Ki of 27 nM.

Molecular target in the next assay: not listed separately
The experiment in a line: Antagonistic activity against 5-hydroxytryptamine 3 receptor. The format is functional.
Regarding `O=C(N[C@H]1CN2CCC1CC2)c1cc(Cl)cc2c1OCC2`, affinity was put at a Ki of 1 nM.
